Inconclusive results are not listed. The source made the active and inactive calls. No rule for the calls is given here.

The assay addresses Histone acetyltransferase RTT109 (Candida albicans (strain SC5314 / ATCC MYA-2876)) (UniProt Q5AAJ8). As to the kind of experiment: C. albicans Rtt109 HAT inhibition curves – biochemical, cherry-picked hits, plate reader, dose response (AID 588764). The following applies: Rtt109/Vps75 HAT activity; for activity change, negative = inhibition: at 19.5 µM (top of the series).

Histone acetyltransferase RTT109 (Candida albicans (strain SC5314 / ATCC MYA-2876)), sequence (Q5AAJ8 whole entry, looked up): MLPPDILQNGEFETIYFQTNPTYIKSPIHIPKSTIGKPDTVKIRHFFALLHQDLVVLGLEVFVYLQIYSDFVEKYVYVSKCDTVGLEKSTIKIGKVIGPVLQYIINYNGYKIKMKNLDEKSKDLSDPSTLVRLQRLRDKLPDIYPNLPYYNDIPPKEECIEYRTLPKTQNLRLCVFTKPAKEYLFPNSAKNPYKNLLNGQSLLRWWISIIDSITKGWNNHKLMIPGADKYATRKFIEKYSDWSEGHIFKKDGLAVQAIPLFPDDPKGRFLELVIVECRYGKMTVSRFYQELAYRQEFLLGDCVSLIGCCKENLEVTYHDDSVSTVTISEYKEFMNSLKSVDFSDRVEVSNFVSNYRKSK

In the case of `O=C(O)COc1ccccc1O`, the “activity change, negative = inhibition” value was “inactive”.
For the compound `CC(C)(C)C1CCc2c(sc(NC(=O)CSc3nnc(-c4ccccc4)o3)c2C#N)C1` (configuration not stated), the “activity change, negative = inhibition” value was “inactive”.
Same read-out and setting: next, `CCOC(=O)c1c(NC(=O)C[n+]2ccc(Cc3ccccc3)cc2)sc(C)c1C`: “inactive”.
Same read-out and setting: next, `Clc1nc(Nc2ccccc2)nc(Nc2ccccc2)n1`: “inactive”; `COc1ccccc1NS(=O)(=O)c1ccc(C)c(C(=O)NCC2(N(C)C)CCCCC2)c1`: “inactive”.
With `O=c1c2ccccc2sn1-c1cc(S(=O)(=O)N2CCOCC2)ccc1N1CCOCC1`, the AC50 was 3.78 µM.
For the compound `CS(=O)(=O)C1=NN2C(=N)/C(=C\c3ccc(OC(=O)c4ccco4)cc3)C(=O)N=C2S1`, the “activity change, negative = inhibition” value was “inactive”.
Consider `COc1ccc(CNC(=O)COC(=O)c2ccc(S(=O)(=O)N3CCCCC3)cc2)cc1`, for which the “activity change, negative = inhibition” value was “inactive”.
The same measure, in the same setting: then `O=C(O)CSCC(=O)Nc1cc(C(F)(F)F)ccc1Cl`, with “inactive”; and `CCOc1ccc(N2C(=O)CC(Sc3ccccc3C(=O)O)C2=O)c([N+](=O)[O-])c1` (configuration not stated), with “inactive”; and `Cc1ccc(NC(=S)N(CCCN2CCCC2)Cc2cccn2Cc2ccc(Cl)cc2)cc1C`, with “inactive”.
On to `Cc1cc(Cl)c(S(=O)(=O)N2CCCC2)cc1OCC(N)=O`, for which the “activity change, negative = inhibition” value is “inactive”.
For the compound `COC(=O)/C=C\C(=O)Nc1cccc([N+](=O)[O-])c1`, the AC50 is 5.62 µM.
As for `COC(=O)c1cccc(Oc2cccc(Cl)n2)c1`, the “activity change, negative = inhibition” value is “inactive”.
The same measure, in the same setting: then `COc1cccc(C(=O)NCc2nnc(SCC(=O)Nc3nccs3)n2-c2cccc(C)c2)c1`, with “inactive”.
On the same count and under the same terms, then `Cc1ccc(C(=O)NCC(=O)NCC(c2ccco2)N2CCCCC2)cc1C` (configuration not stated), with “inactive”.
On the same count and under the same terms, next, `O=C(Nc1ccc(F)cc1)c1c(O)c2c(n(Cc3ccccc3)c1=O)CCCC2`: “inactive”.
For `Cc1nn(CC(=O)NCc2cccnc2)c(C)c1[N+](=O)[O-]`, the “activity change, negative = inhibition” value was “inactive”.
Regarding `CS(=O)(=O)c1ncc(Cl)c(C(=O)Nc2ccc(N3CCOCC3)cc2)n1`, the AC50 is 8.27 µM.
For `COc1cccc(/C=C2/Sc3ccc(C(=O)NCCN4CCCC4)cc3NC2=O)c1`, the “activity change, negative = inhibition” value was “inactive”.
As for `CCCCOc1ccc(C2C(C(=O)c3ccc(C)o3)=C(O)C(=O)N2Cc2ccco2)cc1` (configuration not stated), the “activity change, negative = inhibition” value was “inactive”.
For `Cc1ccc(NC(=O)c2cc(N3C(=O)C=CC3=O)ccc2N2CCOCC2)cc1`, the AC50 is 7.03 µM.
Consider `COc1ccc(CC(NC(C)=O)C(=O)NC2CCN(c3nc(C)cc(C)c3C#N)CC2)cc1` (configuration not stated), for which the “activity change, negative = inhibition” value is “inactive”.
Take `CC(/C=C1\SC(=S)N(C(C(=O)O)c2ccccc2)C1=O)=C\c1ccccc1` (configuration not stated): the “activity change, negative = inhibition” value is “inactive”.
Still for that read-out and setting: then `CC1CCCC(NS(=O)(=O)c2cccc3nsnc23)C1C` (configuration not stated), with “inactive”.
On the same count and under the same terms, next, `Cc1ccc(S(=O)(=O)N/N=C\C=C\c2ccccc2)cc1`: “inactive”; `O=C(NCc1ccc2c(c1)OCO2)c1ccc(CS(=O)Cc2cccc(Cl)c2)o1` (configuration not stated): “inactive”; `Cc1ccc(S(=O)(=O)Nc2ccc(O)c3cccnc23)cc1`: “inactive”.
Same read-out and setting: then `C#CCOCCOCCOCCNc1nc(N2CCN(C(=O)[C@H](CCCN=C(N)N)n3cc(C(N)[C@@H](C)CC)nn3)CC2)nc(N2CCN(C(=O)[C@H](CCCCN)n3cc([C@@H](N)[C@H](C)CC)nn3)CC2)n1` (some centres not stated), with “inactive”; and `NCC12CC3CC(C1)CC(c1ccc(Cl)cc1)(C3)C2`, with “inactive”.
For the compound `CCN(CC)c1ccc(C(=S)N2CCN(c3ccccc3)CC2)cc1`, the “activity change, negative = inhibition” value was “inactive”.
In the case of `N#CC1=C(S)N(c2ccccc2)C(c2cccs2)NC1=O` (configuration not stated), the AC50 is 11.3 µM.
In the case of `O=C(CCc1ccc(S(=O)(=O)N2CCOCC2)cc1)N/N=C/c1ccc(O)c(O)c1O`, the AC50 is 9.29 µM.
Regarding `CC1CCCCC1N(C)C1CCN(C(=O)CNC(=O)/C=C/c2cccc(Cl)c2)CC1` (configuration not stated), the “activity change, negative = inhibition” value was “inactive”.
Same read-out and setting: then `O=C(CNC(=O)c1ccncc1)N/N=C/c1cccc([N+](=O)[O-])c1`, with “inactive”; and `N=c1n(CCN2CCCCC2)c2ccccc2n1CC(O)c1ccc(Cl)c(Cl)c1` (configuration not stated), with “inactive”.
As to `O=C(CSc1nnc2ccccn12)NNC(=O)c1cccc(Cl)c1`, the “activity change, negative = inhibition” value was “inactive”.
In the case of `O=C(Nc1ccccc1Cl)c1cc(S(=O)(=O)N2CCCCC2)ccc1N1CCOCC1`, the “activity change, negative = inhibition” value is “inactive”.
On the same count and under the same terms, then `COc1cccc2c1Oc1ncccc1N(C(=O)CCC(=O)NCc1ccc(F)cc1)C2`, with “inactive”.
Turning to `CCOC(=O)c1ccc(N=C2C(=S)N(c3ccc(C(=O)OCC)cc3)C(=N)N2/N=C/c2ccccc2)cc1`, the “activity change, negative = inhibition” value is “inactive”.
For the compound `Cc1nn(C)cc1[C@@H]1C[C@H]2CN(Cc3cccc(Cl)c3)C(=O)[C@]23CCCN13`, the “activity change, negative = inhibition” value was “inactive”.
In the case of `CC(=O)N(c1ccc2oc(=O)sc2c1)S(=O)(=O)c1cccc2cccnc12`, the “activity change, negative = inhibition” value is “inactive”.
Regarding `CCn1c(SCC(=O)Nc2cc(OC)c(OC)c(OC)c2)nnc1-c1cccs1`, the “activity change, negative = inhibition” value is “inactive”.
Consider `CN(C)C(=S)SSC(=S)N(C)C`, for which the AC50 is 3.4 µM.
For `CCc1ccc(C(=O)CSc2ncn[nH]2)cc1`, the AC50 is 4.11 µM.
With `Cc1nc(CC(C)C)cc(C(=O)N2CCCC(CNS(=O)(=O)c3cccs3)C2)n1` (configuration not stated), the “activity change, negative = inhibition” value was “inactive”.
For `O=C(NC(=S)Nc1ccc(Oc2ccccc2)cc1)c1ccc(Cl)cc1`, the “activity change, negative = inhibition” value is “inactive”.
Still for that read-out and setting: next, `COc1ccc2[nH]c(=O)c(CN(Cc3nnnn3Cc3ccccc3)CC3CCCO3)cc2c1` (configuration not stated): “inactive”.
On the same count and under the same terms, next, `Nc1c(C(=O)c2ccccc2)oc2ccc([N+](=O)[O-])cc12`: “inactive”; `CC(C)c1nc(SCC(=O)Nc2ccc(N3CCOCC3)cc2)c2ccccc2n1`: “inactive”.
Take `COC(=O)c1cccc(-n2sc3ccccc3c2=O)c1`: the AC50 is 4.38 µM.
Still for that read-out and setting: then `CSS(=O)(=O)c1cccc2cccnc12`, with 7.95 µM; and `O=C1OC(NC(=O)c2ccccc2)C(n2cc(CO)nn2)=C1Cl` (configuration not stated), with 5.2 µM; and `N#CC1=C(S)N(c2ccccc2)C(c2ccc(-c3cccc(Cl)c3)o2)NC1=O` (configuration not stated), with 11.9 µM.
Turning to `COc1cc(C2NC(=O)C(C#N)=C(S)N2c2ccccc2)ccc1OC(C)C` (configuration not stated), the “activity change, negative = inhibition” value was “inactive”.
For the compound `O=C(NCc1ccccc1)c1nc(S(=O)(=O)Cc2ccccc2)ncc1Cl`, the AC50 was 15 µM.
Consider `CCOc1ccc(N2C(=O)C(Cl)=C(N3CCOCC3)C2=O)cc1`, for which the AC50 was 20.3 µM.
For `CC1Cc2ccccc2N1C(=O)c1ccc(N2CCCC2)c([N+](=O)[O-])c1` (configuration not stated), the “activity change, negative = inhibition” value is “inactive”.
In the case of `CCCNC(=O)Cn1sc2nc(C)cc(C)c2c1=O`, the AC50 is 2.32 µM.
As to `CC1(C)OC(=O)N(c2ccccc2)C12C=Cc1cc(Br)ccc1O2` (configuration not stated), the “activity change, negative = inhibition” value is “inactive”.
With `COc1ccccc1C(=O)CSc1nccn1C`, the “activity change, negative = inhibition” value is “inactive”.
For the compound `COCCNC(=O)C1=C(N)C(C(=O)Nc2ccc(C)c(S(=O)(=O)N3CCCCC3)c2)SC1=Nc1ccc(C)cc1C` (configuration not stated), the “activity change, negative = inhibition” value is “inactive”.
The same measure, in the same setting: next, `CC1Cc2cc(S(=O)(=O)N3CCC(C(=O)N(C)Cc4ccco4)CC3)ccc2N1C(=O)C1CCC1` (configuration not stated): “inactive”; `COc1ccccc1-n1cnnc1SCC(=O)NC1CCCC1`: “inactive”; `O=C(Nc1cccc(-c2nc3cccnc3s2)c1)c1cccnc1Cl`: “inactive”.
The same measure, in the same setting: next, `COc1ccc(-n2cnc3scc(-c4ccc(OC)c(OC)c4)c3c2=O)cc1`: “inactive”; `CCc1nnc(NC(=O)CSc2nnc(C3CCCCC3)n2-c2cccc(Cl)c2)s1`: “inactive”; `O=C(COC(=O)Cc1ccccc1[N+](=O)[O-])Nc1nnc(-c2ccccc2)o1`: “inactive”.
On the same count and under the same terms, then `CCOC(=O)C1CCN(c2ccc([N+](=O)[O-])c(C(C)=O)c2)CC1`, with “inactive”; and `Cc1cccn2cc(CCNS(=O)(=O)c3cccs3)nc12`, with “inactive”; and `O=C1CN(C(=O)/C=C/c2ccc(Cl)cc2)c2ccccc2N1`, with “inactive”.
`Cc1nonc1OCCn1c([N+](=O)[O-])cnc1C`: the “activity change, negative = inhibition” value was “inactive”.
On to `CC(C)C(C(=O)Nc1cccnc1)N1C(=O)c2ccccc2C1=O` (configuration not stated), for which the “activity change, negative = inhibition” value was “inactive”.
For `N#Cc1c(Nc2ccccc2Cl)s[nH]c1=O`, the AC50 is 4.21 µM.
Turning to `O=C(C/C=N/OCc1ccc(Cl)cc1Cl)c1ccccc1`, the “activity change, negative = inhibition” value was “inactive”.
As for `O=C1COc2ccc(C(=O)c3ccccc3C(=O)NCc3ccco3)cc2N1`, the “activity change, negative = inhibition” value was “inactive”.
Consider `CC(C(=O)Nc1ccc(O)c(C(=O)O)c1)N1C(=O)/C(=C/c2cccs2)SC1=S` (configuration not stated), for which the “activity change, negative = inhibition” value is “inactive”.
Take `COc1ccc(CNC(=O)C2(c3ccc(Cl)cc3)CC2)cc1`: the “activity change, negative = inhibition” value was “inactive”.
Consider `Nc1nc2ccc(S(=O)(=O)N3CCCCC3)cc2s1`, for which the AC50 is 19.5 µM.
For `CCC(C)NC(=O)C1CCN(S(=O)(=O)c2cc([N+](=O)[O-])ccc2Cl)CC1` (configuration not stated), the “activity change, negative = inhibition” value is “inactive”.
On the same count and under the same terms, next, `COc1ccc(C(=O)C(CCC(CNC(C)(C)C)C(=O)c2ccc(OC)cc2)CNC(C)(C)C)cc1` (configuration not stated): “inactive”; `CCOC(=O)C1CCCN(c2cc(=O)n(C3CCCCC3)c(=O)[nH]2)C1` (configuration not stated): “inactive”.

As usually defined, the AC50 is the concentration at which the activity in the assay is half-maximal.

The record behind these values is PubChem BioAssay AID588764 (Broad Institute, 2011).
